According to patent publication US5416222A, “3-pyrrolidine methanamines wherein the alpha-carbon is substituted by 1 or 2 lower alkyl groups which are intermediates for pyridone-carboxylic acid derivatives” (Daiichi Seiyaku Co., Ltd., priority 1985, dated 1995):
Converted amounts (≈) assume the structure as drawn.

How the values were obtained:
[1] = test system: E. coli, NIHJ; assay: antimicrobial activity, MIC, standard process of Japan Society of Chemotherapy; assay type: cell-based; settings: for MIC: Escherichia coli, read-out: minimum growth inhibitory concentration (MIC)
Description: (§1) The antimicrobial activities of the compounds of the present invention were determined according to a standard process designated by the Japan Society of Chemotherapy and the minimum growth inhibitory concentrations (MIC) (μg/ml) the compounds were determined.

[2] = test system: Pr. mirabilis, IF03849; assay: as above; assay type: cell-based; settings: for MIC: Proteus mirabilis, IF03849, Pr. mirabilis, read-out: minimum growth inhibitory concentration (MIC); for minimum growth inhibitory concentration (MIC): Pr. mirabilis
Description: as §1

[3] = test system: Pr. vulgaris, 3167; assay: as above; assay type: cell-based; settings: for MIC: Proteus vulgaris, 3167, Pr. vulgaris, read-out: minimum growth inhibitory concentration (MIC); for minimum growth inhibitory concentration (MIC): Pr. vulgaris
Description: as §1

[4] = test system: Ps. aeruginosa, 2063; assay: as above; assay type: cell-based; settings: for MIC: Pseudomonas aeruginosa, 2063, Ps. aeruginosa, read-out: minimum growth inhibitory concentration (MIC); for minimum growth inhibitory concentration (MIC): Ps. aeruginosa
Description: as §1

[5] = test system: Ps. aeruginosa, 2128; assay: as above; assay type: cell-based; settings: for MIC: Pseudomonas aeruginosa, 2128, Ps. aeruginosa, read-out: minimum growth inhibitory concentration (MIC); for minimum growth inhibitory concentration (MIC): Ps. aeruginosa
Description: as §1

[6] = test system: Ps. cepacia, IID1340; assay: as above; assay type: cell-based; settings: for MIC: Burkholderia cepacia, IID1340, Ps. cepacia, read-out: minimum growth inhibitory concentration (MIC); for minimum growth inhibitory concentration (MIC): Ps. cepacia
Description: as §1

[7] = test system: Ps. maltophilia, IID1275; assay: as above; assay type: cell-based; settings: for MIC: Stenotrophomonas maltophilia, IID1275, Ps. maltophilia, read-out: minimum growth inhibitory concentration (MIC); for minimum growth inhibitory concentration (MIC): Ps. maltophilia
Description: as §1

[8] = test system: S. aureus, 209P; assay: as above; assay type: cell-based; settings: for MIC: Staphylococcus aureus, read-out: minimum growth inhibitory concentration (MIC)
Description: as §1

[9] = test system: S. epidermidis, 56500; assay: as above; assay type: cell-based; settings: for MIC: Staphylococcus epidermidis, 56500, S. epidermidis, read-out: minimum growth inhibitory concentration (MIC); for minimum growth inhibitory concentration (MIC): S. epidermidis
Description: as §1

[10] = test system: Ser. marcescens, 13001; assay: as above; assay type: cell-based; settings: for MIC: Serratia marcescens, 13001, Ser. marcescens, read-out: minimum growth inhibitory concentration (MIC); for minimum growth inhibitory concentration (MIC): Ser. marcescens
Description: as §1

[11] = test system: Sh. flexneri, 2a5503; assay: as above; assay type: cell-based; settings: for MIC: Shigella flexneri, read-out: minimum growth inhibitory concentration (MIC)
Description: as §1

[12] = test system: Str. faecalis, ATCC 19433; assay: as above; assay type: cell-based; settings: for MIC: Enterococcus faecalis, ATCC19433, Str. faecalis, read-out: minimum growth inhibitory concentration (MIC); for minimum growth inhibitory concentration (MIC): Str. faecalis
Description: as §1

[13] = test system: Str. pyogenes, G-36; assay: as above; assay type: cell-based; settings: for MIC: Streptococcus pyogenes, G36, Str. pyogenes, read-out: minimum growth inhibitory concentration (MIC); for minimum growth inhibitory concentration (MIC): Str. pyogenes
Description: as §1

[14] = physchem; assay type: physicochemical; settings: water
Description: (§2) The water-solubility and acute toxicity of the compounds of the present invention and the comparative compounds, were measured. The results obtained are shown hereunder. The water-solubility was measured by the following method.
(i) Preparation of standard solution
About 400 μg of the sample to be measured was accurately weighed (the weight was defined as W μg), and 0.1N NaOH solution was added thereto to bring the whole volume to 50 ml. The UV absorbance of a given amount of the solution was measured and the measured absorbance was defined as A1.
(ii) Preparation of sample to be measured
Distilled water was added to the sample to be measured (fine powder) in such amount that the sample was not completely dissolved but suspended, and then the suspension was vigorously agitated at room temperature (between 23° and 26° C.) for 30 minutes. Insoluble matter of the sample was removed therefrom by filtration, after which 3 ml sample of the filtrate (satulated aqueous solution of the sample) was taken. 3 ml of 0.2N NaOH solution was added to the filtrate sample to bring the total volume to 6 ml (i.e. the filtrate was diluted to 50% concentration.) To 1 ml of the resulting solution, 0.1N NaOH solution was further added to bring the total volume to 25 ml […]. In this connection, degree of dilution was occasionally changed, depending on degree of UV absorbance. The UV absorbance of the given amount of the solution was measured and the resulting absorbance was defined to as A2. Where the number of dilution is N, water-solubility (s) is obtained from the following equation: [formula]

[15] = test system: mouse; assay: acute toxicity to mouse; assay type: in vivo; settings: 200 mg/kg; i.v.
Description: as §2
*200 mg/kg; i.v, (deaths/total number) As is obvious from the above

[16] = in words, prior art discussion; cited from earlier work
[17] = test system: Gram-negative microorganisms; settings: in words, prior art discussion; cited from earlier work
[18] = absorption after oral administration to rats; assay type: in vivo; settings: rat, 20 mg/kg; for half-life: serum half life, 0.693/Kel; for Cmax / AUC(0-t) at 6 h: serum; for Cmax: 5 rats per group; for AUC(0-t) at 6 h: zero to 6 h, trapezoidal method, read-out: AUC0-6H
Description: The compounds of the present invention and the comparative compound were orally given to rats (one group: 5 rats) at a dose of 20 mg/kg to measure the oral absorption of the compounds. The concentration of the compound in the blood of the rat was measured at 15 minutes, 30 minutes, and 1, 2, 3, 4, and 6 hours after administration.
Serum half lives (T1/2) were calculated as 0.693/Kel, where Kel is the elimination rate constant determined by linear regression analysis of the natural logarithm of serum concentration-time data. The area under the serum concentration-versus time curve from zero to 6 h (AUC0-6H) was calculated by the trapezoidal method, The results obtained are as follows: […]

Compound | MIC [1] [µg/mL] | MIC [2] [µg/mL] | MIC [3] [µg/mL] | MIC [4] [µg/mL] | MIC [5] [µg/mL] | MIC [6] [µg/mL] | MIC [7] [µg/mL] | MIC [8] [µg/mL] | MIC [9] [µg/mL] | MIC [10] [µg/mL] | MIC [11] [µg/mL] | MIC [12] [µg/mL] | MIC [13] [µg/mL] | solubility at 0.5 h [14] [µg/mL] | Acute toxicity to mouse [15] | half-life [18] [h] | Cmax [18] [ng/mL] | AUC(0-t) at 6 h [18] [ng·h/mL] | minimum growth inhibitory concentration (MIC) [4] [µg/mL] | minimum growth inhibitory concentration (MIC) [5] [µg/mL] | other results
CCNCC1CCN(c2c(F)cc3c(=O)c(C(=O)O)cn(C4CC4)c3c2F)C1 (stereo not drawn) [Compound A, 1-cyclopropyl-6,8-difluoro-(3-ethylaminomethyl-1-pyrolidinyl)-1,4-dihydro-4-oxoquinoline-3-carboxylic acid, reference compound] | ≤ 0.05 | ≤ 0.05 | 0.1 (≈ 0.255 µM) | 0.39 (≈ 0.996 µM) | 0.2 (≈ 0.511 µM) | 0.78 (≈ 1.99 µM) | 0.39 (≈ 0.996 µM) | ≤ 0.05 | ≤ 0.05 | 0.1 (≈ 0.255 µM) | ≤ 0.05 | 0.1 (≈ 0.255 µM) | 0.1 (≈ 0.255 µM) | 40 (≈ 102 µM) | 3/5 | – | – | – | – | – | water-solubility (prior art compounds) [16]: extremely low water-solubility; antimicrobial activity against Gram-negative microorganisms (prior art compounds) [17]: strong antimicrobial activity
CC(C)(N)C1CCN(c2nc3c(cc2F)c(=O)c(C(=O)O)cn3C2CC2)C1 (stereo not drawn) [Example 13, 7-[3-(1-Amino-1-methyl)ethyl-1-pyrrolidinyl]-1-cyclo-propyl-6-difluoro-1,4-dihydro-4-oxo-1,8-naphthyridine-3-carboxylic acid] | ≤ 0.05 | 0.39 (≈ 1.04 µM) | 0.1 (≈ 0.267 µM) | 0.39 (≈ 1.04 µM) | 0.2 (≈ 0.534 µM) | 0.78 (≈ 2.08 µM) | 0.2 (≈ 0.534 µM) | ≤ 0.05 | ≤ 0.05 | 0.2 (≈ 0.534 µM) | ≤ 0.05 | 0.2 (≈ 0.534 µM) | 0.1 (≈ 0.267 µM) | 2000 (≈ 5340 µM) | 1/5 | 2.41 | 2140 | 7950 | – | – | –
CC(C)(N)C1CCN(c2c(F)cc3c(=O)c(C(=O)O)cn(C4CC4)c3c2F)C1 (stereo not drawn) [Example 11, 7-[3-(1-Amino-1-methyl)ethyl-1-pyrrolidinyl]-1-cyclopropyl-6,8-difluoro-1,4-dihydro-4-oxoquinoline-3-carboxylic acid] | ≤ 0.05 | 0.1 (≈ 0.255 µM) | ≤ 0.05 | 0.78 (≈ 1.99 µM) | 0.2 (≈ 0.511 µM) | 0.78 (≈ 1.99 µM) | 0.1 (≈ 0.255 µM) | ≤ 0.05 | ≤ 0.05 | 0.1 (≈ 0.255 µM) | ≤ 0.05 | ≤ 0.05 | ≤ 0.05 | 200 (≈ 511 µM) | 0/5 | 2.27 | 2100 | 6430 | – | – | –
CCC(N)C1CCN(c2c(F)cc3c(=O)c(C(=O)O)cn(C4CC4)c3c2F)C1 (single isomer, unassigned) [Example 21, 1-Cyclopropyl-6,8-difluoro-7-[3-(1aminopropyl)-1-pyrrolidinyl]-1,4-dihydro-4-oxoquinoline-3-carboxylic acid] | ≤ 0.05 | 0.1 (≈ 0.255 µM) | ≤ 0.05 | 0.2 (≈ 0.511 µM) | 0.1 (≈ 0.255 µM) | 0.2 (≈ 0.511 µM) | ≤ 0.05 | ≤ 0.05 | ≤ 0.05 | ≤ 0.05 | ≤ 0.05 | ≤ 0.05 | ≤ 0.05 | – | – | – | – | – | – | – | –
CCC(N)C1CCN(c2c(F)cc3c(=O)c(C(=O)O)cn(C4CC4)c3c2F)C1 (stereo not drawn) [Example 22] | – | – | – | – | – | – | – | – | – | – | – | – | – | – | – | – | – | – | 0.39 | 0.20 | minimum growth inhibitory concentration (MIC) [1]: ≤ 0.05 µg/mL; minimum growth inhibitory concentration (MIC) [2]: 0.10 µg/mL; minimum growth inhibitory concentration (MIC) [3]: ≤ 0.05 µg/mL; minimum growth inhibitory concentration (MIC) [6]: 0.20 µg/mL; minimum growth inhibitory concentration (MIC) [7]: 0.20 µg/mL; minimum growth inhibitory concentration (MIC) [8]: ≤ 0.05 µg/mL; minimum growth inhibitory concentration (MIC) [9]: ≤ 0.05 µg/mL; minimum growth inhibitory concentration (MIC) [10]: 0.10 µg/mL; minimum growth inhibitory concentration (MIC) [11]: ≤ 0.05 µg/mL; minimum growth inhibitory concentration (MIC) [12]: 0.20 µg/mL; minimum growth inhibitory concentration (MIC) [13]: 0.20 µg/mL
CNC(C)C1CCN(c2c(F)cc3c(=O)c(C(=O)O)cn(C4CC4)c3c2F)C1 (single isomer, unassigned) [Example 7] | – | – | – | – | – | – | – | – | – | – | – | – | – | 710 (≈ 1810 µM) | 1/5 | 2.01 | 2210 | 6310 | 0.20 | 0.10 | minimum growth inhibitory concentration (MIC) [1]: ≤ 0.05 µg/mL; minimum growth inhibitory concentration (MIC) [2]: ≤ 0.05 µg/mL; minimum growth inhibitory concentration (MIC) [3]: ≤ 0.05 µg/mL; minimum growth inhibitory concentration (MIC) [6]: 0.78 µg/mL; minimum growth inhibitory concentration (MIC) [7]: 0.20 µg/mL; minimum growth inhibitory concentration (MIC) [8]: ≤ 0.05 µg/mL; minimum growth inhibitory concentration (MIC) [9]: ≤ 0.05 µg/mL; minimum growth inhibitory concentration (MIC) [10]: 0.10 µg/mL; minimum growth inhibitory concentration (MIC) [11]: ≤ 0.05 µg/mL; minimum growth inhibitory concentration (MIC) [12]: ≤ 0.05 µg/mL; minimum growth inhibitory concentration (MIC) [13]: ≤ 0.05 µg/mL
CC(N)C1CCN(c2c(F)cc3c(=O)c(C(=O)O)cn(C4CC4)c3c2F)C1 (single isomer, unassigned) [Example 1, 7-[3-(1-Aminoethyl)-1-pyrrolidinyl]-1-cyclopropyl-6,8-difluoro-1,4-dihydro-4-oxoquinoline-3-carboxylic acid] | ≤ 0.05 | 0.1 (≈ 0.265 µM) | 0.1 (≈ 0.265 µM) | – | – | 0.78 (≈ 2.07 µM) | 0.2 (≈ 0.53 µM) | 0.1 (≈ 0.265 µM) | 0.1 (≈ 0.265 µM) | – | ≤ 0.05 | 0.1 (≈ 0.265 µM) | 0.1 (≈ 0.265 µM) | – | – | – | – | – | 0.78 | 0.20 | minimum growth inhibitory concentration (MIC) [10]: 0.20 µg/mL
CCC(N)C1CCN(c2c(F)cc3c(=O)c(C(=O)O)cn(C4CC4)c3c2F)C1 (stereo not drawn) [Example 9, 7-[3-(1-Aminopropyl)-1-pyrrolidinyl]-1-cyclopropyl-6,8-difluoro-1,4-dihydro-4-oxoquinoline-3-carboxylic acid] | ≤ 0.05 | 0.1 (≈ 0.255 µM) | ≤ 0.05 | 0.78 (≈ 1.99 µM) | 0.2 (≈ 0.511 µM) | 0.39 (≈ 0.996 µM) | 0.1 (≈ 0.255 µM) | ≤ 0.05 | ≤ 0.05 | ≤ 0.05 | ≤ 0.05 | 0.1 (≈ 0.255 µM) | – | – | – | – | – | – | – | – | minimum growth inhibitory concentration (MIC) [13]: ≤ 0.05 µg/mL
